Assay results from patent US20050026950A1, “Methods of therapeutic treatment using retinoids to achieve consistent bioavailability” (Allergan, Inc., priority 2003, published 2005).

Legend:
Type in all cases: in vivo, human
[1] = test system: severe nodulocystic acne; assay: Multicenter double-blind placebo-controlled study of oral tazarotene in severe nodulocystic acne; conditions: for patients withdrawing due to adverse events: treatment period
Text: A multicenter, double-blind, randomized, placebo-controlled parallel-group study is undertaken to determine the efficacy of orally administered tazarotene in treating severe nodulocystic acne.
In addition, washout periods for other medications for this study are: 1 week for vitamin A supplements >5000 IU; 2 weeks for topical anti-acne medications (e.g., retinoids, azelaic acid, benzoyl peroxide); 2 weeks for topical or systemic antibiotic therapy that may alter the course of acne; and 6 months for systemic retinoids.
Patients are randomized to receive placebo or oral tazarotene (0.75, 1.5, 3, or 6 mg), in a 1:1:1:1:1 ratio once daily for 24 weeks. After this, the patients are followed without treatment for an additional 12 weeks. Patients discontinuing from the treatment period due to adverse effects or lack of efficacy are eligible for entry into the post-treatment phase.
In the study, overall acne severity is rated as: none (no inflammatory acne lesions); mild (few to several papules or pustules, no nodulocystic lesions); moderate (several to many papules or pustules, few to several nodulocystic lesions); and severe (numerous or extensive papules or pustules, many, for example, at least about 5 or at least about 10, nodulocystic lesions).
Treatment success is defined as at least moderate (about 50%) improvement on the following 7-point global response scale: • 0=completely cleared • 1=almost cleared (about 90% improvement) • 2=marked response (about 75% improvement) • 3=moderate response (about 50% improvement) • 4=slight response (about 25% improvement) • 5=condition unchanged • 6=condition worsened
In this study, facial nodulocystic lesion count includes lesions greater than 5 mm in size. Facial papular/pustular lesion count includes lesions less than or equal to 5 mm in size. Facial non-inflammatory lesion count includes open and closed comedones.
Sebum output is assessed every 4 weeks at selected centers using the Sebutape® patches, sold by Cuderm Corporation. Urinalysis, chemistry, and hematology values are monitored. Bone formation and resorption assessments (serum bone alkaline phosphatase and serum amino terminal telopeptides, respectively) at selected centers are monitored.
Bone mineral density of spine and proximal femur at selected centers is monitored. Ligament calcification or osteophyte formation (lateral X-ray of the cervical and thoracic spine, and ankle calcaneous) is monitored. Epiphyseal growth plate closure (internal oblique X-ray of the ankle in patients less than or equal to 21 years old) is monitored.

[2] = test system: severe psoriasis; assay: Patient with severe psoriasis taking Ortho-Novum treated with tazarotene; conditions: 6 mg per day, after 30 days
Text: The patient presents symptoms of severe psoriasis. The symptoms include lesions approximately 4 to 10 centimeters across appearing as raised patches of wine red skin many of which are covered in silvery white scales. The lesions are mostly dry and rough, and quite often noticeably warm to the touch. The lesions are present on the elbows, knees, scalp, and groin area. The patient experiences intense burning and itching associated with the lesions.
The patient is currently taking Ortho-Novum® for contraception.
Tazarotene at a dose of 6 mg per day is prescribed.

[3] = Two placebo-controlled dose-ranging safety studies of oral tazarotene in nodulocystic acne
Procedure: Two placebo-controlled dose-ranging studies are conducted to evaluate the safety of oral tazarotene in patients having nodulocystic acne. In the first study, patients receive orally administered tazarotene at daily doses of 0.4 mg to 2.8 mg in 96 (71+25) patients (12 weeks treatment plus 12 weeks post-treatment). In the second study, daily doses of 0.75 mg to 6 mg tazarotene are administered to 181 patients (24 weeks treatment plus 12 weeks post-treatment).

[4] = Two placebo-controlled 24-week safety studies of oral tazarotene plus 16- to 24-week dose-response evaluations
Procedure: Two multicenter, double-blind, randomized, placebo-controlled 24-week studies of identical design are conducted to evaluate the safety of oral tazarotene. In addition, 16- to 24-week dose-response evaluations are performed.
In the two safety trials, the incidence of adverse side effects with a 4.5 mg dose administered orally once daily is compared to the incidence of the same side effects with a placebo. […] The majority of these were mild in severity and typical of adverse effects associated with oral retinoids.

[5] = test system: moderate to very severe plaque psoriasis; assay: Open-label extension study of oral tazarotene in plaque psoriasis non-responders
[6] = 0.75 to 6 mg once daily, 24 weeks
[7] = 4.5 mg orally once daily, two safety trials
[8] = 4.5 mg once daily, 12-week extension
[9] = 4.5 mg once daily, 12-week extension, across both groups

CCOC(=O)c1ccc(C#Cc2ccc3c(c2)C(C)(C)CCS3)nc1 [tazarotene]
patients withdrawing due to adverse events ([1]; 0.75 mg group (2/35)): 6%
patients withdrawing due to adverse events ([1]; 1.5 mg group (0/37)): 0%
incidence of treatment success vs placebo ([1]; 3 mg and 6 mg, week 24 and post-treatment phase, p≦0.05): significantly higher incidence of treatment success
patients withdrawing due to adverse events ([1]; 3 mg group (2/37)): 5%
patients withdrawing due to adverse events ([1]; 6 mg group (1/36)): 3%
reduction of overall acne severity vs placebo ([1]; 6 mg, week 16 until end of post-treatment phase, p≦0.01): significantly more than placebo
bone formation and resorption (serum bone alkaline phosphatase, amino terminal telopeptides) [1, 6]: do not appear to be altered
changes in urinalysis, chemistry, or hematology measures (liver function, triglycerides, total and HDL cholesterol) [1, 6]: None of the treatment groups show any consistent clinically significant changes
ligament calcification, osteophyte formation, or changes in bone density [1, 6]: None of the treatment groups show any clinically significant
percentage of patients with at least a 90% reduction in facial nodulocystic lesion count vs placebo ([1]; 1.5, 3, and 6 mg groups, week 24): significantly greater
sebum secretion (Sebutape method) ([1]; oral, 0.75 to 6 mg, vs placebo): does not substantially reduce sebum secretion relative to placebo
patients achieving treatment success (≧50% global improvement) ([1]; three highest doses, by week 12): more than 70%
patients achieving treatment success (≧50% global improvement) ([1]; two highest doses, by week 24): more than 86%
psoriasis symptoms and lesions [2]: symptoms of itching and burning are relieved and the severity of their lesions are substantially lessened
changes in urinalysis, chemistry, or hematology measures (liver function tests, triglycerides, total and HDL cholesterol) ([3]; 0.4 mg to 6 mg daily): no consistent dose-related clinically significant changes
ligament calcification, osteophyte formation, serum bone alkaline phosphatase, amino terminal telopeptides, bone density ([3]; 0.4 mg to 6 mg daily): not associated with any clinically significant
incidence of arthralgia ([3]; 2.8 mg, n=11, treatment period): 9%
incidence of asthenia ([3]; 2.8 mg, n=11, treatment period): 0%
incidence of cheilitis ([3]; 2.8 mg, n=11, treatment period): 64%
incidence of dry skin ([3]; 2.8 mg, n=11, treatment period): 18%
incidence of headache ([3]; 2.8 mg, n=11, treatment period): 9%
incidence of joint disorder ([3]; 2.8 mg, n=11, treatment period): 27%
incidence of myalgia ([3]; 2.8 mg, n=11, treatment period): 0%
severe dry skin ([3]; 3 mg and 6 mg groups): No patient has severe dry skin
Emotional lability, patients ([3]; 3 mg group): 3%
mild cheilitis ([3]; 3 mg group): 25 patients
mild dry skin ([3]; 3 mg group): 11 patients
moderate cheilitis ([3]; 3 mg group): 3 patients
moderate dry skin ([3]; 3 mg group): 2 patient
severe cheilitis ([3]; 3 mg group): 1 patient
Depression, patients ([3]; 3 mg group (2 mild, 1 severe)): 8%
incidence of arthralgia ([3]; 3 mg, n=37, treatment period): 8%
incidence of asthenia ([3]; 3 mg, n=37, treatment period): 19%
incidence of cheilitis ([3]; 3 mg, n=37, treatment period): 78%
incidence of dry skin ([3]; 3 mg, n=37, treatment period): 35%
incidence of headache ([3]; 3 mg, n=37, treatment period): 19%
incidence of joint disorder ([3]; 3 mg, n=37, treatment period): 14%
incidence of myalgia ([3]; 3 mg, n=37, treatment period): 16%
Depression, patients ([3]; 6 mg group): none
Emotional lability, patients ([3]; 6 mg group): 14%
mild cheilitis ([3]; 6 mg group): 27 patients
mild dry skin ([3]; 6 mg group): 17 patients
moderate cheilitis ([3]; 6 mg group): 6 patients
moderate dry skin ([3]; 6 mg group): 1 patient
severe cheilitis ([3]; 6 mg group): 1 patient
incidence of arthralgia ([3]; 6 mg, n=36, treatment period): 28%
incidence of asthenia ([3]; 6 mg, n=36, treatment period): 19%
incidence of cheilitis ([3]; 6 mg, n=36, treatment period): 94%
incidence of dry skin ([3]; 6 mg, n=36, treatment period): 50%
incidence of headache ([3]; 6 mg, n=36, treatment period): 36%
incidence of joint disorder ([3]; 6 mg, n=36, treatment period): 19%
incidence of myalgia ([3]; 6 mg, n=36, treatment period): 25%
patients withdrawing from either study due to adverse events ([3]; both studies, 7/277 patients including placebo): 2.5%
incidence of agitation ([4]; 4.5 mg orally once daily): < 1%
incidence of altered hormone levels (TSH, T4, thyroid function test) ([4]; 4.5 mg orally once daily): 0%
incidence of anxiety ([4]; 4.5 mg orally once daily): 1%
incidence of depression ([4]; 4.5 mg orally once daily): 1%
incidence of emotional lability ([4]; 4.5 mg orally once daily): 3%
incidence of psychosis ([4]; 4.5 mg orally once daily): 0%
incidence of psychotic depression ([4]; 4.5 mg orally once daily): 0%
incidence of hypertriglyceridemia, hypercholesterolemia, abnormal liver function tests, increased ALT/AST, desquamation, eye dryness, alopecia ([4]; 4.5 mg orally once daily vs placebo): essentially the same incidence with oral tazarotene as with placebo
incidence of arthralgia [4, 7]: 17%
incidence of back pain [4, 7]: 7%
incidence of cheilitis [4, 7]: 66%
incidence of dermatitis [4, 7]: 1%
incidence of dry skin [4, 7]: 24%
incidence of foot pain [4, 7]: 3%
incidence of headache [4, 7]: 19%
incidence of hyperglycemia [4, 7]: 2%
incidence of joint disorder [4, 7]: 4%
incidence of myalgia [4, 7]: 14%
incidence of nasal dryness [4, 7]: 4%
incidence of rash [4, 7]: 3%
incidence of patients discontinuing due to adverse effects ([4]; 0.4 to 1.1 mg oral (n=105)): approximately 2%
incidence of patients discontinuing due to adverse effects ([4]; 2.1 to 2.8 mg oral (n=21)): 10%
changes in liver function test values or cholesterol levels [5, 8]: no clinically significant changes
serious adverse events related to study treatment [5, 8]: no serious adverse events considered related to the study treatment
incidence of arthralgia [5, 9]: 20%
incidence of asthenia [5, 9]: 6%
incidence of back pain [5, 9]: 11%
incidence of cheilitis [5, 9]: 70%
incidence of dry skin [5, 9]: 25%
incidence of headache [5, 9]: 11%
incidence of hypertriglyceridemia [5, 9]: 6%
incidence of infection [5, 9]: 10%
incidence of myalgia [5, 9]: 15%
Clinical success (a 2-grade reduction in OLA), patients ([5]; end of the 12-week post-treatment period): 16%
